The values that follow come from ChEMBL document CHEMBL1201862, “PubChem BioAssay data set” (2004).

Activity calls are given as the source filed them. Bounds are passed on as bounds.

One experiment deals with Large T antigen (Simian virus 40, UniProt P03070). Format: functional, Betapolyomavirus macacae.
The next experiment deals with T1, Caspase-3 (Homo sapiens, UniProt P42574).
T1 sequence (P42574 whole entry): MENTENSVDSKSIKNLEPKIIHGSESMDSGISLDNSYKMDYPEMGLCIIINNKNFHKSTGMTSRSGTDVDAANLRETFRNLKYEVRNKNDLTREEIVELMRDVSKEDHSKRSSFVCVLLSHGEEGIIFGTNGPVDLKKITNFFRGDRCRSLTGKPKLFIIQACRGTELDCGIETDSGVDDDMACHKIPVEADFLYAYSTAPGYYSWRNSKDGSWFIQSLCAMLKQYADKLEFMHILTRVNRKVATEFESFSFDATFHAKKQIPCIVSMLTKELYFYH
The format is functional.

For experiment [1], the target named is T2, Sentrin-specific protease 8 (Homo sapiens, UniProt Q96LD8).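 Also: luminescence read-out of SENP8 inhibition, dose-response confirmation following an ultra-high-throughput screen.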
T2 sequence (Q96LD8 whole entry): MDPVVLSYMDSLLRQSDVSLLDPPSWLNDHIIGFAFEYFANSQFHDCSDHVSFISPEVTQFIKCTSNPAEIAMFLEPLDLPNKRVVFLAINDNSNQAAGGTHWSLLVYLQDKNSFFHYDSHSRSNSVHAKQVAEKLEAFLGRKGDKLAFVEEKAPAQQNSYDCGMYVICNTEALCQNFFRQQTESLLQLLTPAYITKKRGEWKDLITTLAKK
Format: functional.

In the next experiment the target is T3, CAAX prenyl protease 2 (Homo sapiens, UniProt Q9Y256).
T3 sequence (Q9Y256 whole entry): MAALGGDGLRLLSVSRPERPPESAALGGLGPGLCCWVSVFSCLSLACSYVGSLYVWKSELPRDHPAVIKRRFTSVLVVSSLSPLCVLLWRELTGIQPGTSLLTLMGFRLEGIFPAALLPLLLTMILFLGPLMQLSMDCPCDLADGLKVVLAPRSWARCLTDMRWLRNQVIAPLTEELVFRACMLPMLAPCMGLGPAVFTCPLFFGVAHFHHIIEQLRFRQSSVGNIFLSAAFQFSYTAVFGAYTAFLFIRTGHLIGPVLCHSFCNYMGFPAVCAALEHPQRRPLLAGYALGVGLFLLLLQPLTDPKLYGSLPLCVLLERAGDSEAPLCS
Nature of the experiment: human Rce1 protease inhibitors, dose response, biochemical, yeast membranes, quenched-peptide fluorescence, cherry-pick (AID 588849).

The target of experiment [2] is T4, Sentrin-specific protease 7 (Homo sapiens, UniProt Q9BQF6).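 Also: Luminescence-based dose-response confirmation of ultra-high-throughput screening hits, measuring inhibition of SENP7.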
T4 sequence (Q9BQF6 whole entry): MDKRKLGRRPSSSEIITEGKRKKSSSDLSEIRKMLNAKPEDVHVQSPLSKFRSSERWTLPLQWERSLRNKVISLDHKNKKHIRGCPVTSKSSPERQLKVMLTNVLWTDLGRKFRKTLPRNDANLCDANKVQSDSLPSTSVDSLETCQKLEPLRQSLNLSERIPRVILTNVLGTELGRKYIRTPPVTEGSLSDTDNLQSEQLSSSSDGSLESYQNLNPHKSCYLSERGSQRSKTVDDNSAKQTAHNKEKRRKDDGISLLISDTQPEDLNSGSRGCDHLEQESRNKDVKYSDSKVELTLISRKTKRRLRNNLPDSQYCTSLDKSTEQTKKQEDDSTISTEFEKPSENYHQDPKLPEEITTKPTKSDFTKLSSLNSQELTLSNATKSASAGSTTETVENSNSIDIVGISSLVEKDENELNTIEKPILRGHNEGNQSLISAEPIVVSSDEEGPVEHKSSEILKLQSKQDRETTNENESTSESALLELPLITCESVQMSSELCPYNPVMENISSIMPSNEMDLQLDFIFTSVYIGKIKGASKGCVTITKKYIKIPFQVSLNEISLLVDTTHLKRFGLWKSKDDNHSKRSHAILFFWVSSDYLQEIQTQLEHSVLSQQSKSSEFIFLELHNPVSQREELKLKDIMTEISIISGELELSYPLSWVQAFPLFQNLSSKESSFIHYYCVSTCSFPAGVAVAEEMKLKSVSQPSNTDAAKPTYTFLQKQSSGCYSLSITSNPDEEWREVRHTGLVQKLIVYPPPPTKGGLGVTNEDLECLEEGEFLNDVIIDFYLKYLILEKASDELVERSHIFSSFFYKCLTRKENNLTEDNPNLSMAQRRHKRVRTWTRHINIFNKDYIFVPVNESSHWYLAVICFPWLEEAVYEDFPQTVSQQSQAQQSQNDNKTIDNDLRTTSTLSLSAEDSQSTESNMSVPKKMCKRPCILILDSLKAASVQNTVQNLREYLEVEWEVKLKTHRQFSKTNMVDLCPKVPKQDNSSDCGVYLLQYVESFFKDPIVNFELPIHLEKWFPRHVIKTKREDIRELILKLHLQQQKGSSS
Format: functional.

In experiment [3] the target is T5, Sentrin-specific protease 6 (Homo sapiens, UniProt Q9GZR1).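 Also: Luminescence-based dose-response confirmatory assay of SENP6 inhibition, following up an ultra-high-throughput screen.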
T5 sequence (Q9GZR1 whole entry): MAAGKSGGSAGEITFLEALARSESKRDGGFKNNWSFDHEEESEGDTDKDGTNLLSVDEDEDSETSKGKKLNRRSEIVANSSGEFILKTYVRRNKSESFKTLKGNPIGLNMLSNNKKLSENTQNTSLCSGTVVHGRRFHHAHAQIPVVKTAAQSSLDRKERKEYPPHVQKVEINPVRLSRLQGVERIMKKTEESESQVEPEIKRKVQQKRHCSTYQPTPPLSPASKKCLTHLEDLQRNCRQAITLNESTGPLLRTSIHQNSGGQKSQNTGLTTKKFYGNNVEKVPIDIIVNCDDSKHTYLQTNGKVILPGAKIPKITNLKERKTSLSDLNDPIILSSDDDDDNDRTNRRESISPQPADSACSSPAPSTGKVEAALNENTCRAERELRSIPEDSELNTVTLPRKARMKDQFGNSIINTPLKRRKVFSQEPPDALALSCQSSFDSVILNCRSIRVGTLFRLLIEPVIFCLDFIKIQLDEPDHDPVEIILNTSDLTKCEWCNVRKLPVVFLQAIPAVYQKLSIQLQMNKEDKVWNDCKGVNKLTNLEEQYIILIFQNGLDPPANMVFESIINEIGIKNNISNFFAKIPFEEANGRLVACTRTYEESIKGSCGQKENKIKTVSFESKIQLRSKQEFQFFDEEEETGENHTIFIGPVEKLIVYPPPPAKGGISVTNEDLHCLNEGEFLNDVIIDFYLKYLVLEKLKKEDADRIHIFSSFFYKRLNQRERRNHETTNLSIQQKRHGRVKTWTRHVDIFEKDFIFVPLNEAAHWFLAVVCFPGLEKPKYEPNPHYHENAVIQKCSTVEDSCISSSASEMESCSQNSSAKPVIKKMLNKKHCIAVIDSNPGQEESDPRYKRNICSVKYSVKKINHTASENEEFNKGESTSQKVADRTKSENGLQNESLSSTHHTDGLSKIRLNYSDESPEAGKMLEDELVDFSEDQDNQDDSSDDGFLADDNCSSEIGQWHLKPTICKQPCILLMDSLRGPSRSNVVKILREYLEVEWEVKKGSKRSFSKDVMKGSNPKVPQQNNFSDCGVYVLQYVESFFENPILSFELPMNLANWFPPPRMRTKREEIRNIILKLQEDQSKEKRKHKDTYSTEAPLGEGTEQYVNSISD
Format: functional.

In the next experiment the target is Trypsin (Sus scrofa, UniProt P00761). Kind of experiment: porcine trypsin inhibitors, dose response, selectivity assay for Rce1 protease inhibitor project, biochemical, quenched peptide fluorescence, cherry-pick (AID 488789).
Trypsin, sequence (P00761 whole entry): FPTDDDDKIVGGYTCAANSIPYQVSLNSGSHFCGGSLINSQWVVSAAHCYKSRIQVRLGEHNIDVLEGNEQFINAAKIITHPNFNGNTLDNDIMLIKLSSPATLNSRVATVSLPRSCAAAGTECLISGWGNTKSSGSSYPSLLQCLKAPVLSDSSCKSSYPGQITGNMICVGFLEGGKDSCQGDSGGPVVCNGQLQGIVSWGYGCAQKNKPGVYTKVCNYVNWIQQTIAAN
The next experiment addresses CAAX prenyl protease 1 (Saccharomyces cerevisiae S288c, UniProt P47154). Nature of the experiment: Ste24 protease inhibitors, dose response, biochemical, S. cerevisiae, plate reader, cherry-pick (AID 488815).
A further experiment deals with Kallikrein-7 (Homo sapiens, UniProt P49862). Nature of the experiment: Fluorescence Intensity-based biochemical primary high throughput dose response assay to identify activators of kallikrein-7 (K7) zymogen.
Kallikrein-7, sequence (P49862 whole entry): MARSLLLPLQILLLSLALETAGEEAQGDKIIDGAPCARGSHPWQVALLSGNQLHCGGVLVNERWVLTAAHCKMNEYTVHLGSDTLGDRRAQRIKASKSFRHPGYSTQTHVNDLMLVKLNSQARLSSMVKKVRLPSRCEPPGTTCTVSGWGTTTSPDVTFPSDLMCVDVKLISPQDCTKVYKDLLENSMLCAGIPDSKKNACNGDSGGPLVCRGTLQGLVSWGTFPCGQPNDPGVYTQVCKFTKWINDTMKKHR
Experiment [4] addresses T6, High affinity choline transporter 1 (Homo sapiens, UniProt Q9GZV3).
T6 sequence (Q9GZV3 whole entry): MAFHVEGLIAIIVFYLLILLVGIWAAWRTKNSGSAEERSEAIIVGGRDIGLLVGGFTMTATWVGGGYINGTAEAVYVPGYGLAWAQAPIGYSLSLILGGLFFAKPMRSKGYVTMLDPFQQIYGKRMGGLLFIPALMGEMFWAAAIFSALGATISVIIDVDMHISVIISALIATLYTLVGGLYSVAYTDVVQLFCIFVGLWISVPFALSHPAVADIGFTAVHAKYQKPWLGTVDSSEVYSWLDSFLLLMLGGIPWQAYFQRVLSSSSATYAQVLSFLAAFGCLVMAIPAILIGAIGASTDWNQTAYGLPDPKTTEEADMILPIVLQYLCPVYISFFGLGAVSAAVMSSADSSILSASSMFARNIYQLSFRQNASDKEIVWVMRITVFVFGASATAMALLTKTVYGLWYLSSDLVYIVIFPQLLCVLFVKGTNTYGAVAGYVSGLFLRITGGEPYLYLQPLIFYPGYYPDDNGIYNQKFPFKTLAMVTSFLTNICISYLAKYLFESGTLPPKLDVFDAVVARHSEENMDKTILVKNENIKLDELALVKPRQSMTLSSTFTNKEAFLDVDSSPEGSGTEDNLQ
Nature of the experiment: CHT inhibitors, dose response, cell-based, 5-point CRC, membrane potential dye (AID 504840). Format: functional.

The target of experiment [5] is Glucose-6-phosphate 1-dehydrogenase (Homo sapiens, UniProt P11413). Kind of experiment: human G6PD enzyme inhibitors, dose response, selectivity assay for P. falciparum G6PD inhibitor project, biochemical, fluorescence (AID 504792). Format: functional.
Glucose-6-phosphate 1-dehydrogenase, sequence (P11413 whole entry): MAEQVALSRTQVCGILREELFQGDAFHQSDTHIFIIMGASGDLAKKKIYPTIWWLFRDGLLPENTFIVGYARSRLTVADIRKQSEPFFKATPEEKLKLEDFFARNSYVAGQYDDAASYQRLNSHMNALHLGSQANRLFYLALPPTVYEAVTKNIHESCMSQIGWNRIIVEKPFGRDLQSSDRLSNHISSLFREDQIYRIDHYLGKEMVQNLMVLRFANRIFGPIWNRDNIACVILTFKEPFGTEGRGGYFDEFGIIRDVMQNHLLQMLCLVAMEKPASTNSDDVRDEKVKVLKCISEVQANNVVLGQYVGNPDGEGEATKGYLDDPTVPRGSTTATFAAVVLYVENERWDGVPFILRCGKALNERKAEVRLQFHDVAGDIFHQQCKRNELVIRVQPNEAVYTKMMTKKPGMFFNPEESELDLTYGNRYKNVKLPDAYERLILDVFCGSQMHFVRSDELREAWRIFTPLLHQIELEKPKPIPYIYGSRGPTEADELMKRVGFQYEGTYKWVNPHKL

CAAX prenyl protease 1, sequence (P47154 whole entry): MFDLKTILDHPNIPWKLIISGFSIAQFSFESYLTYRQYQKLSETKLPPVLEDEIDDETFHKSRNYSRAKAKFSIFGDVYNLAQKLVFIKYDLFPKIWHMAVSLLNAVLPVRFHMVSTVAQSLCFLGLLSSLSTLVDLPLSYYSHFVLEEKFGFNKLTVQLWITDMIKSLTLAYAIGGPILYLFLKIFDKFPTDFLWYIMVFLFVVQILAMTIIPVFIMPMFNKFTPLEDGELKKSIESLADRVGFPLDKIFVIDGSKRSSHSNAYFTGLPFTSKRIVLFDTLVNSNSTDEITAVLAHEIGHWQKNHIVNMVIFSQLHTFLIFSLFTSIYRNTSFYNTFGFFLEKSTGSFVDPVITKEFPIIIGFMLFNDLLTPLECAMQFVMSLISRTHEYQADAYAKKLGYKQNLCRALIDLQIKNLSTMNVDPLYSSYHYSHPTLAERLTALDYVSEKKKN
Large T antigen, sequence (P03070 whole entry): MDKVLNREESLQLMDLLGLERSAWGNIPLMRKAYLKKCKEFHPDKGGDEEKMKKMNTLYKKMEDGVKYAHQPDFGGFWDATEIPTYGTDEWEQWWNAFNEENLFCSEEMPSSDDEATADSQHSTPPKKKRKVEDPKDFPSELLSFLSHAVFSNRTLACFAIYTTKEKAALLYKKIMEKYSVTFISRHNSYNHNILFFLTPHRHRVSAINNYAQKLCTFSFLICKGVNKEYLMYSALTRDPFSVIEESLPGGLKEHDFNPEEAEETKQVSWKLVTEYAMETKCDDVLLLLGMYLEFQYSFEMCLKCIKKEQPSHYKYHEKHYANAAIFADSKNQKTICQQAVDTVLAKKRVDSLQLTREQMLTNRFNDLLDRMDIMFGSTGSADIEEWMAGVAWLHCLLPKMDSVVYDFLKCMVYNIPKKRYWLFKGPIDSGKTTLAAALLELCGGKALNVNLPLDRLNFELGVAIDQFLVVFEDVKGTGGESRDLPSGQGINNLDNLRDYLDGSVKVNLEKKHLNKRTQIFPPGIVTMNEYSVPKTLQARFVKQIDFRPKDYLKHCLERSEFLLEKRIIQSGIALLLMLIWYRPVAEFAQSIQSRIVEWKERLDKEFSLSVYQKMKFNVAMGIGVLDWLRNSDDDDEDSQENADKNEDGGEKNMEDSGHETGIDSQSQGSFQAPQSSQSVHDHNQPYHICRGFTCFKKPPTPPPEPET

Consider `Oc1ccc(-c2nc3ccccn3c2NCc2ccco2)cc1`, for which the IC50 (as a rule, the midpoint of a concentration-inhibition curve) was 11.4 µM (active) on Large T antigen; 17.6 µM (active) at Caspase-3; 81.9 µM (active) in [1]; 16 µM (active) in [2]; 54.4 µM (active) in experiment [3]. In addition, the AC50 (usually the concentration giving half of the maximal activity seen) was 6.52 µM (active) at CAAX prenyl protease 2, 10.8 µM (active) on Trypsin and 4.39 µM (active) at CAAX prenyl protease 1.

In the case of `CCC(C)NC(=O)c1cc2c(=O)n3cccc(C)c3nc2s1` (centres undefined), the AC50 at CAAX prenyl protease 2 was 6.01 µM (active); on Trypsin it was 28.5 µM (active); on CAAX prenyl protease 1, 1.72 µM (active). Besides, the EC50 (as a rule, the concentration needed to bring the measured effect to its halfway point) at Kallikrein-7 is > 69.6 µM (inactive).

`O=C1Nc2cc(C(=O)NCCCN3CCCC3)ccc2S/C1=C\c1ccccc1`: the IC50 in experiment [4] is 14.5 µM (active); in experiment [5], > 80 µM (inactive).
